Measurements: the supplement of paper PMC4862054

What was measured:
Settings in all cases: incubation time: 72 h
BT-474 [1] = assay: normalised response (% of control), CellTox Green; higher = less cell death (100 = DMSO, 0 = benzethonium chloride kill control)
Summary of the method: (§1)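 Plates were normalised with 0.1 % DMSO as 100 and a positive kill control as 0. Breast cancer cell lines in 20 µl suspension had been seeded into 384-well plates with compound at 5 concentrations in 10-fold steps over a compound-specific 10,000-fold range, incubated 72 h, and read for CellTox Green fluorescence (485/520 nm) followed by CellTiter-Glo luminescence. Each value is the normalised signal at a single concentration.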

BT-549 [2] = assay: as above
Summary of the method: as §1

CAL-120 [3] = assay: as above
Summary of the method: as §1

CAL-148 [4] = assay: as above
Summary of the method: as §1

CAL-51 [5] = assay: as above
Summary of the method: as §1

CAL-85-1 [6] = assay: as above
Summary of the method: as §1

DU-4475 [7] = assay: as above
Summary of the method: as §1

HCC1143 [8] = assay: as above
Summary of the method: as §1

HCC1599 [9] = assay: as above
Summary of the method: as §1

HDQ-P1 [10] = assay: as above
Summary of the method: as §1

Hs578T [11] = assay: as above
Summary of the method: as §1

MCF-10A [12] = assay: as above
Summary of the method: as §1

MDA-MB-231 [13] = assay: as above
Summary of the method: as §1

MDA-MB-436 [14] = assay: as above
Summary of the method: as §1

MDA-MB-453 [15] = assay: as above
Summary of the method: as §1

MDA-MB-468 [16] = assay: as above
Summary of the method: as §1

MFM-223 [17] = assay: as above
Summary of the method: as §1

BT-474 [18] = assay: normalised response (% of control), CellTiter-Glo; higher = more viable cells (100 = DMSO, 0 = benzethonium chloride kill control)
Experimental: (§2)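 DSRT, 72 h incubation, CellTox Green / CellTiter-Glo readout. Signal is normalised to DMSO and benzethonium chloride controls. Value is the normalised response at dose 3.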

BT-549 [19] = assay: as above
Experimental: as §2

CAL-120 [20] = assay: as above
Experimental: as §2

CAL-148 [21] = assay: as above
Experimental: as §2

CAL-51 [22] = assay: as above
Experimental: as §2

CAL-85-1 [23] = assay: as above
Experimental: as §2

DU-4475 [24] = assay: as above
Experimental: as §2

HCC1143 [25] = assay: as above
Experimental: as §2

HCC1599 [26] = assay: as above
Experimental: as §2

HCC1937 [27] = assay: as above
Experimental: as §2

HDQ-P1 [28] = assay: as above
Experimental: as §2

Hs578T [29] = assay: as above
Experimental: as §2

MCF-10A [30] = assay: as above
Experimental: as §2

MDA-MB-231 [31] = assay: as above
Experimental: as §2

MDA-MB-436 [32] = assay: as above
Experimental: as §2

MDA-MB-453 [33] = assay: as above
Experimental: as §2

MDA-MB-468 [34] = assay: as above
Experimental: as §2

MFM-223 [35] = assay: as above
Experimental: as §2

SK-BR-3 = assay: as above
Experimental: as §2

HCC1937 [36] = assay: normalised response (% of control), CellTox Green; higher = less cell death (100 = DMSO, 0 = benzethonium chloride kill control)
Summary of the method: as §1

Structure (SMILES) | normalised response (BT-474 [1]) | normalised response (BT-549 [2]) | normalised response (CAL-120 [3]) | normalised response (CAL-148 [4]) | normalised response (CAL-51 [5]) | normalised response (CAL-85-1 [6]) | normalised response (DU-4475 [7]) | normalised response (HCC1143 [8]) | normalised response (HCC1599 [9]) | normalised response (HDQ-P1 [10]) | normalised response (Hs578T [11]) | normalised response (MCF-10A [12]) | normalised response (MDA-MB-231 [13]) | normalised response (MDA-MB-436 [14]) | normalised response (MDA-MB-453 [15]) | normalised response (MDA-MB-468 [16]) | normalised response (MFM-223 [17]) | normalised response (BT-474 [18]) | normalised response (BT-549 [19]) | normalised response (CAL-120 [20]) | normalised response (CAL-148 [21]) | normalised response (CAL-51 [22]) | normalised response (CAL-85-1 [23]) | normalised response (DU-4475 [24]) | normalised response (HCC1143 [25]) | normalised response (HCC1599 [26]) | normalised response (HCC1937 [27]) | normalised response (HDQ-P1 [28]) | normalised response (Hs578T [29]) | normalised response (MCF-10A [30]) | normalised response (MDA-MB-231 [31]) | normalised response (MDA-MB-436 [32]) | normalised response (MDA-MB-453 [33]) | normalised response (MDA-MB-468 [34]) | normalised response (MFM-223 [35]) | normalised response (SK-BR-3) | normalised response (HCC1937 [36])
C=CCn1c(=O)c2cnc(Nc3ccc(N4CCN(C)CC4)cc3)nc2n1-c1cccc(C(C)(C)O)n1 [MK1775] (100 nM) | 95.4% | 105% | 97.8% | 73.4% | 82.8% | 77.2% | 94.9% | 98.6% | 90% | 98.5% | 66.1% | 84.2% | 70.8% | 63.2% | 96.5% | 76.1% | 97.1% | 87.1% | 91.1% | 79% | 73.4% | 94.7% | 90.3% | 93.4% | 89.2% | 81.2% | 90.7% | 74.6% | 87.7% | 73.3% | 81.5% | 69.4% | 67.6% | 89.2% | 82.4% | 79% | 
O=C(CCCCCCC(=O)Nc1ccccc1)NO [Vorinostat] (100 nM) | 71.5% | 96.8% | 90.8% | 102% | 86.3% | 94.8% | 97.7% | 109% | 95.5% | 102% | 108% | 91.4% | 92.3% | 74.1% | 102% |  | 99.6% | 96.2% | 100% | 96.1% | 108% | 69.6% | 105% | 99.6% | 98.8% | 113% | 97.7% | 97.1% | 98.2% | 101% | 93.6% | 97% | 101% | 110% | 97.8% | 94.5% | 102%
O=[N+]([O-])c1ccc2c(c1)S(=O)(=O)C=C2 [Stattic] (500 nM) | 101% | 102% | 99.8% | 102% | 108% | 98.8% | 107% | 81.2% | 95.4% | 104% | 89.2% | 106% | 107% | 95.3% | 103% | 133% | 96.9% | 94.5% | 85.3% | 98.2% | 98.3% | 99% | 99.5% | 102% | 104% | 103% | 94.3% | 100% | 96.5% | 106% | 90.8% | 100% | 85.2% | 45.6% | 96.8% | 106% | 
